Results: patent US11021475B2, “Amide-substituted heterocyclic compounds useful as modulators of IL-12, IL-23 and/or IFN alpha responses” (Bristol-Myers Squibb Company, priority 2012, dated 2021)
Read-outs that look alike come from different tables or passages of the source.

Columns and labels:
[1] = test system: IL-23 stimulated Kit225 T cells (STAT-dependent luciferase reporter); experiment: Kit225 T cell assay, IL-23-stimulated STAT-dependent luciferase reporter; assay type: cell-based, human; conditions: 20 ng/mL human recombinant IL-23, 5-6 hours, read-out: IL-23 Kit225 Reporter (IC50)
Protocol: (§1) Kit225 T cells with a stably-integrated STAT-dependent luciferase reporter were plated in RPMI (Gibco) containing 10% heat-inactivated FBS (Gibco) and 100 U/mL PenStrep (Gibco). The cells were then stimulated with either 20 ng/mL human recombinant IL-23 or 200 U/mL human recombinant IFNα (PBL InterferonSource) for 5-6 hours. Luciferase expression was measured using the STEADY-GLO® Luciferase Assay System (Promega) according to the manufacturer's instructions. Inhibition data were calculated by comparison to no inhibitor control wells for 0% inhibition and non-stimulated control wells for 100% inhibition.

[2] = test system: IFNα stimulated Kit225 T cells (STAT-dependent luciferase reporter); experiment: Kit225 T cell assay, IFNα-stimulated STAT-dependent luciferase reporter; assay type: cell-based, human; conditions: 200 U/mL human recombinant IFNα, 5-6 hours, read-out: IFNα Kit225 Reporter (IC50)
Protocol: as §1

Row | Structure (SMILES) | IC50 ([1]; KIT225) [nM] | IC50 ([2]; KIT225) [nM] | IC50 [1] [nM] | IC50 [2] [nM]
1 | [2H]C([2H])([2H])NC(=O)c1nnc(Nc2cc(C)c(F)cn2)cc1Nc1ccccc1S(C)(=O)=O [Example 1] | 30 | 20 |  | 
2 | CS(=O)(=O)c1ccccc1Nc1cc(Nc2ccc(F)cn2)nnc1C(N)=O [Example 2] |  |  | 140 | 50
3 | CNC(=O)c1nnc(Nc2ccc(F)cn2)cc1Nc1ccccc1S(C)(=O)=O [Example 3] |  |  | 100 | 60
4 | CNC(=O)c1nnc(Nc2ccc(F)cn2)cc1Nc1ccccc1S(C)(=O)=O [Example 6] |  |  | 190 | 110
5 | CNC(=O)c1nnc(Nc2cc(C)nc(C)n2)cc1Nc1ccccc1S(C)(=O)=O [Example 7] |  |  | 70 | 50
6 | CNC(=O)c1nnc(Nc2cc(C)ncn2)cc1Nc1ccccc1S(C)(=O)=O [Example 8] |  |  | 130 | 90
7 | CNC(=O)c1nnc(Nc2cc(F)ccn2)cc1Nc1ccccc1S(C)(=O)=O [Example 9] |  |  | 60 | 90
8 | CNC(=O)c1nnc(Nc2cc(C#N)ccn2)cc1Nc1ccccc1S(C)(=O)=O [Example 11] |  |  | 100 | 60
9 | CNC(=O)c1nnc(NC(=O)C2CC2)cc1Nc1ccccc1S(C)(=O)=O [Example 12] |  |  | 230 | 100
10 | CNC(=O)c1nnc(Nc2cc3ccccc3cn2)cc1Nc1ccccc1S(C)(=O)=O [Example 13] |  |  | 20 | 50
11 | CNC(=O)c1nnc(Nc2cc(C)ccn2)cc1Nc1ccccc1S(C)(=O)=O [Example 14] |  |  | 10 | 10
12 | CNC(=O)c1nnc(Nc2cc(C)c(F)cn2)cc1Nc1ccccc1S(C)(=O)=O [Example 15] |  |  | 40 | 50
13 | CNC(=O)c1nnc(NC(=O)C2CC2)cc1Nc1ccccc1S(C)(=O)=O [Example 17] |  |  | 570 | 360
14 | Cc1cc(Nc2cc(Nc3ccccc3S(C)(=O)=O)c(C(N)=O)nn2)ncc1F [Example 18] |  |  | 100 | 30
15 | CNC(=O)c1nnc(Nc2ccc(C)nn2)cc1Nc1ccccc1S(C)(=O)=O [Example 19] |  |  | 90 | 90
16 | CNC(=O)c1nnc(Nc2cc(C)c(C)cn2)cc1Nc1ccccc1S(C)(=O)=O [Example 20] |  |  | 20 | 20
17 | CNC(=O)c1nnc(Nc2cc(C)c(C)nn2)cc1Nc1ccccc1S(C)(=O)=O [Example 21] |  |  | 80 | 60
18 | CNC(=O)c1nnc(Nc2ccc(OC)cn2)cc1Nc1ccccc1S(C)(=O)=O [Example 22] |  |  | 160 | 100
19 | CNC(=O)c1nnc(Nc2cc(C)ccn2)cc1Nc1ccccc1S(C)(=O)=O [Example 23] |  |  | 100 | 40
20 | CNC(=O)c1nnc(Nc2cc(C)n(C)n2)cc1Nc1ccccc1S(C)(=O)=O [Example 24] |  |  | 60 | 50
21 | CNC(=O)c1nnc(Nc2cc(C#N)ccn2)cc1Nc1ccccc1S(C)(=O)=O [Example 25] |  |  | 140 | 80
22 | CNC(=O)c1nnc(NC(=O)C2CC2)cc1Nc1cccc(-c2ncccn2)c1OC [Example 70] |  |  | 20 | 
23 | CNC(=O)c1nnc(NC(=O)C2CC2)cc1Nc1cccc(-c2ccccn2)c1OC [Example 72] |  |  | 130 | 
24 | CNC(=O)c1nnc(NC(=O)C2CC2)cc1Nc1cccc(-c2cnccn2)c1OC [Example 75] |  |  | 70 | 
25 | CNC(=O)c1nnc(NC(=O)C2CC2)cc1Nc1cccc(-c2cccnn2)c1OC [Example 78] |  |  | 320 | 
26 | CNC(=O)c1nnc(NC(=O)C2CC2)cc1Nc1cccc(-c2nccc(C)n2)c1OC [Example 82] |  |  | 110 | 
27 | CNC(=O)c1nnc(NC(=O)C2CC2)cc1Nc1cccc(-c2ccncn2)c1OC [Example 86] |  |  | 30 | 
28 | CNC(=O)c1nnc(Nc2cc(C)n(C)n2)cc1Nc1cccc(-c2ncc(C)s2)c1OC [Example 104] |  |  |  | 40
29 | CNC(=O)c1nnc(NC(=O)C2CC2)cc1Nc1cccc(-c2cnn(CC(F)F)c2)c1OC [Example 187] |  |  | 50 | 
